Assay results: ChEMBL document CHEMBL2331510, “Antimycobacterial activity evaluation, time-kill kinetic and 3D-QSAR study of C-(3-aminomethyl-cyclohexyl)-methylamine derivatives” (Bioorg Med Chem Lett, 2013)
Converted amounts (≈) assume the structure as drawn. The source made the active and inactive calls. The calls are words filed in the database; no cut-off is given here.

test system: Mycobacterium tuberculosis; assay: Antitubercular activity against Mycobacterium tuberculosis H37Rv after 5 days by fluorescence assay; type: functional; settings: 120 h

With CCCCCc1ccccc1CNCC1CCCC(CNCc2ccccc2CCCCC)C1 (centres undefined) as the compound, how does the MIC read?
The MIC was 8.7 µM (≈ 4.03 µg/mL).

For CCCCCc1ccc(CNCC2CCCC(CNCc3ccc(CCCCC)cc3)C2)cc1 (centres undefined), which MIC is on record?
Its MIC is 6.7 µM (≈ 3.1 µg/mL).

With Clc1ccc(CNCC2CCCC(CNCc3ccc(Cl)cc3Cl)C2)c(Cl)c1 (centres undefined) as the compound, how does the MIC read?
Its MIC is 20 µM (≈ 9.21 µg/mL).

For CCc1ccc(CNCC2CCCC(CNCc3ccc(CC)cc3)C2)cc1 (centres undefined), which MIC is on record?
The MIC was 15.7 µM (≈ 5.94 µg/mL).

With CCCCCCc1ccccc1CNCC1CCCC(CNCc2ccccc2CCCCCC)C1 (centres undefined) as the compound, how does the MIC read?
Its MIC is 8.8 µM (≈ 4.32 µg/mL).

With CCCCCCc1ccc(CNCC2CCCC(CNCc3ccc(CCCCCC)cc3)C2)cc1 (centres undefined) as the compound, how does the MIC read?
The MIC was 5.6 µM (≈ 2.75 µg/mL).

For CC(C)(C)c1ccc(CNCC2CCCC(CNCc3ccc(C(C)(C)C)cc3)C2)cc1.Cl.Cl (centres undefined), which MIC is on record?
Its MIC is 1.1 µM.

With Cc1ccc(CNCC2CCCC(CNCc3ccc(C)c(C)c3)C2)cc1C (centres undefined) as the compound, how does the MIC read?
Its MIC is greater than 20 µM.

With CCCCCCCc1ccc(CNCC2CCCC(CNCc3ccc(CCCCCCC)cc3)C2)cc1 (centres undefined) as the compound, how does the MIC read?
Its MIC is 3.1 µM (≈ 1.61 µg/mL).

With FC(F)(F)c1ccc(CNCC2CCCC(CNCc3ccc(C(F)(F)F)cc3)C2)cc1 (centres undefined) as the compound, how does the MIC read?
Its MIC is 12.5 µM (≈ 5.73 µg/mL).

With Brc1cccc(CNCC2CCCC(CNCc3cccc(Br)c3)C2)c1 (centres undefined) as the compound, how does the MIC read?
The MIC was 12.7 µM (≈ 6.1 µg/mL).

Which MIC does the source give for CCCCc1ccc(CNCC2CCCC(CNCc3ccc(CCCC)cc3)C2)cc1.Cl.Cl (centres undefined) here?
The MIC was 2.4 µM.

For Brc1ccccc1CNCC1CCCC(CNCc2ccccc2Br)C1 (centres undefined), which MIC is on record?
The MIC was greater than 20 µM.

With CC(C)c1ccc(CNCC2CCCC(CNCc3ccc(C(C)C)cc3)C2)cc1 (centres undefined) as the compound, how does the MIC read?
The MIC was 4.4 µM (≈ 1.79 µg/mL).

For Cc1ccc(CNCC2CCCC(CNCc3ccc(C)cc3)C2)cc1 (centres undefined), which MIC is on record?
The MIC was greater than 20 µM.

Which MIC does the source give for c1ccc(N2CCN(c3ccc(CNCC4CCCC(CNCc5ccc(N6CCN(c7ccccc7)CC6)cc5)C4)cc3)CC2)cc1 (centres undefined) here?
The MIC was 4.4 µM (≈ 2.83 µg/mL).

With Cc1cc(C)cc(CNCC2CCCC(CNCc3cc(C)cc(C)c3)C2)c1 (centres undefined) as the compound, how does the MIC read?
Its MIC is 17.5 µM (≈ 6.63 µg/mL).

Which MIC does the source give for Clc1ccc(CNCC2CCCC(CNCc3ccc(Cl)cc3)C2)cc1 (centres undefined) here?
Its MIC is 17.5 µM (≈ 6.85 µg/mL).

Which MIC does the source give for Brc1ccc(CNCC2CCCC(CNCc3ccc(Br)cc3)C2)cc1 (centres undefined) here?
Its MIC is 12.2 µM (≈ 5.86 µg/mL).

For Cc1ccc(CNCC2CCCC(CNCc3ccc(C)cc3C)C2)c(C)c1 (centres undefined), which MIC is on record?
The MIC was greater than 20 µM.

With CCCCCCCCc1ccc(CNCC2CCCC(CNCc3ccc(CCCCCCCC)cc3)C2)cc1 (centres undefined) as the compound, how does the MIC read?
Its MIC is 3.2 µM (≈ 1.75 µg/mL).

Which MIC does the source give for c1cc(N2CCCC2)ccc1CNCC1CCCC(CNCc2ccc(N3CCCC3)cc2)C1 (centres undefined) here?
Its MIC is 9.5 µM (≈ 4.38 µg/mL).

Which MIC does the source give for CCCc1ccc(CNCC2CCCC(CNCc3ccc(CCC)cc3)C2)cc1 (centres undefined) here?
Its MIC is 4.2 µM (≈ 1.71 µg/mL).

Which MIC does the source give for Clc1cccc(CNCC2CCCC(CNCc3cccc(Cl)c3)C2)c1 (centres undefined) here?
Its MIC is greater than 20 µM.

Which MIC does the source give for Cc1ccc(C)c(CNCC2CCCC(CNCc3cc(C)ccc3C)C2)c1 (centres undefined) here?
Its MIC is greater than 20 µM.

Which MIC does the source give for CC[C@@H](CO)NCCN[C@@H](CC)CO [ETHAMBUTOL] here?
Its MIC is 2 µM (≈ 0.409 µg/mL).

With CCCCCCCc1ccccc1CNCC1CCCC(CNCc2ccccc2CCCCCCC)C1 (centres undefined) as the compound, how does the MIC read?
The MIC was 20 µM (≈ 10.4 µg/mL).

Which MIC does the source give for CCCCCCCCc1ccccc1CNCC1CCCC(CNCc2ccccc2CCCCCCCC)C1 (centres undefined) here?
The MIC was 16.1 µM (≈ 8.81 µg/mL).

Which MIC does the source give for c1cc(N2CCCCC2)ccc1CNCC1CCCC(CNCc2ccc(N3CCCCC3)cc2)C1 (centres undefined) here?
Its MIC is 13.8 µM (≈ 6.74 µg/mL).

Which MIC does the source give for Cc1cccc(CNCC2CCCC(CNCc3cccc(C)c3)C2)c1 (centres undefined) here?
The MIC was greater than 20 µM.

test system: Mycobacterium tuberculosis; assay: Antitubercular activity against Mycobacterium tuberculosis H37Rv at 20 uM after 5 days by fluorescence assay; type: functional, organism-based; settings: not given

With O=[N+]([O-])c1cccc(CNCC2CCCC(CNCc3cccc([N+](=O)[O-])c3)C2)c1 (centres undefined) as the compound, how does the inhibition read?
The inhibition was “inactive”.

For Fc1cccc(F)c1CNCC1CCCC(CNCc2c(F)cccc2F)C1 (centres undefined), which inhibition is on record?
Its inhibition is “inactive”.

With Fc1cc(F)cc(CNCC2CCCC(CNCc3cc(F)cc(F)c3)C2)c1 (centres undefined) as the compound, how does the inhibition read?
The inhibition was “inactive”.

Which inhibition does the source give for Fc1ccc(CNCC2CCCC(CNCc3ccc(F)cc3)C2)cc1 (centres undefined) here?
Its inhibition is “inactive”.

With Clc1ccccc1CNCC1CCCC(CNCc2ccccc2Cl)C1 (centres undefined) as the compound, how does the inhibition read?
The inhibition was “inactive”.

For Fc1ccccc1CNCC1CCCC(CNCc2ccccc2F)C1 (centres undefined), which inhibition is on record?
Its inhibition is “inactive”.

Which inhibition does the source give for Cc1ccccc1CNCC1CCCC(CNCc2ccccc2C)C1 (centres undefined) here?
The inhibition was “inactive”.

With O=[N+]([O-])c1ccccc1CNCC1CCCC(CNCc2ccccc2[N+](=O)[O-])C1 (centres undefined) as the compound, how does the inhibition read?
The inhibition was “inactive”.

With FC(F)(F)c1ccccc1CNCC1CCCC(CNCc2ccccc2C(F)(F)F)C1 (centres undefined) as the compound, how does the inhibition read?
Its inhibition is “inactive”.

With Fc1cccc(CNCC2CCCC(CNCc3cccc(F)c3)C2)c1 (centres undefined) as the compound, how does the inhibition read?
The inhibition was “inactive”.

Which inhibition does the source give for O=[N+]([O-])c1ccc(CNCC2CCCC(CNCc3ccc([N+](=O)[O-])cc3)C2)cc1 (centres undefined) here?
Its inhibition is “inactive”.

Which inhibition does the source give for COc1ccc(CNCC2CCCC(CNCc3ccc(OC)cc3)C2)cc1 (centres undefined) here?
The inhibition was “inactive”.

For CN1CCN(c2ccc(CNCC3CCCC(CNCc4ccc(N5CCN(C)CC5)cc4)C3)cc2)CC1 (centres undefined), which inhibition is on record?
Its inhibition is “inactive”.

Which inhibition does the source give for Clc1cccc(Cl)c1CNCC1CCCC(CNCc2c(Cl)cccc2Cl)C1 (centres undefined) here?
Its inhibition is “inactive”.

Which inhibition does the source give for c1ccc(CNCC2CCCC(CNCc3ccccc3)C2)cc1 (centres undefined) here?
Its inhibition is “inactive”.

test system: Mycobacterium tuberculosis; assay: Bactericidal activity against Mycobacterium tuberculosis H37Rv assessed as log reduction in CFU at 10 times MIC over 2 days by serial dilution-based time kill assay relative to control; type: functional; settings: not given

With CC(C)(C)c1ccc(CNCC2CCCC(CNCc3ccc(C(C)(C)C)cc3)C2)cc1.Cl.Cl (centres undefined) as the compound, how does the FC read?
The FC was 5.

Which FC does the source give for CCCCc1ccc(CNCC2CCCC(CNCc3ccc(CCCC)cc3)C2)cc1.Cl.Cl (centres undefined) here?
The FC was 5.

test system: Mycobacterium tuberculosis; assay: Bactericidal activity against Mycobacterium tuberculosis H37Rv assessed as reduction in CFU at 10 times MIC by serial dilution-based time kill assay relative to control; type: functional, organism-based; settings: TDE = time-dependent effect

Which Activity does the source give for CC(C)(C)c1ccc(CNCC2CCCC(CNCc3ccc(C(C)(C)C)cc3)C2)cc1.Cl.Cl (centres undefined) here?
Its Activity is “tde”.

test system: Mycobacterium tuberculosis; assay: Bactericidal activity against Mycobacterium tuberculosis H37Rv assessed as reduction in CFU at 10 times MIC after 4 days by serial dilution-based time kill assay relative to control; type: functional, organism-based; settings: not given

For CC(C)(C)c1ccc(CNCC2CCCC(CNCc3ccc(C(C)(C)C)cc3)C2)cc1.Cl.Cl (centres undefined), which Activity is on record?
Its Activity is “Active”.

With CCCCc1ccc(CNCC2CCCC(CNCc3ccc(CCCC)cc3)C2)cc1.Cl.Cl (centres undefined) as the compound, how does the Activity read?
The Activity was “Active”.

test system: Mycobacterium tuberculosis; assay: Bactericidal activity against Mycobacterium tuberculosis H37Rv assessed as reduction in CFU over 4 days by serial dilution-based time kill assay relative to control; type: functional; settings: not given

Which Activity does the source give for CC(C)(C)c1ccc(CNCC2CCCC(CNCc3ccc(C(C)(C)C)cc3)C2)cc1.Cl.Cl (centres undefined) here?
Its Activity is “Dose-dependent effect”.

same assay, conditions: 96 h

Which MBC does the source give for CC(C)(C)c1ccc(CNCC2CCCC(CNCc3ccc(C(C)(C)C)cc3)C2)cc1.Cl.Cl (centres undefined) here?
Its MBC is 4.5 µM.

test system: not listed separately; assay: Cytotoxicity against human RBC up to 500 ug/ml; type: cell-based; settings: erythrocyte

With CC(C)(C)c1ccc(CNCC2CCCC(CNCc3ccc(C(C)(C)C)cc3)C2)cc1.Cl.Cl (centres undefined) as the compound, how does the Activity read?
Its Activity is “Non-toxic”.

For CCCCc1ccc(CNCC2CCCC(CNCc3ccc(CCCC)cc3)C2)cc1.Cl.Cl (centres undefined), which Activity is on record?
The Activity was “Non-toxic”.
